Where “and” joins values, the source holds several entries; their conditions need not be identical. Identical values can stand only once. Ends that are not written are not given here. * marks the point of attachment. Myristoyl = CCCCCCCCCCCCCC(=O)*
Experiments:
[1] = test system: Zucker diabetic fatty rats; assay: Observation of side effects / tolerability in ZDF rats
[2] = test system: male Zucker diabetic fatty rats; assay: Tail cuff blood pressure in male ZDF rats after IP peptide; assay type: in vivo, rat; settings: for systolic blood pressure-lowering at 4 hours post-administration vs baseline: Experiment 2: two male ZDF rats; for Acute Peak diastolic blood pressure-lowering / Acute Peak mean arterial blood pressure-lowering / Acute Peak systolic blood pressure-lowering / Duration of Action, diastolic BP / Duration of Action, mean arterial BP / Duration of Action, systolic BP: two male ZDF rats
Protocol: Animals. Male ZDF and lean (+/?) Zucker rats were obtained from Charles River Laboratories (Kingston, NY) at approximately 6-7 weeks of age. The rats were single housed upon arrival, without enrichment. Rats were acclimatized for two weeks prior to experimental procedures. Rats were provided ad libitum access to food and water and maintained in a 12 h light/dark cycle with lights on at 0630. The procedures occurred during the light phase of the cycle. Blood pressure testing (following acute or chronic administration of the decoy peptides) was conducted in three separate cohorts of animals.
Cohort 1: Three 25-week-old male ZDF and three, age-matched, male Zucker lean rats (ZLR) treated with IP decoy peptide 2 (ZDF) vs saline (vehicle) (ZLR).
Cohort 2: Eleven-week old male ZDF (n=5) and Zucker lean rats (n=4) treated with IP decoy peptide 2.
Cohort 3: Twelve 8.5-week old male Zucker diabetic fatty rats were randomly assigned to one of three treatment groups (n=4/group). The rats underwent baseline blood pressure determinations using tail-cuff plethysmography technique. Next, the animals who expressed baseline hypertension, i.e., blood pressure >135/85, received either a 1 mg/kg intraperitoneal injection of pegylated decoy peptide 2 (n=3); a 2 mg/kg intraperitoneal dose of a scrambled decoy peptide 2 (n=4); or vehicle (i.e., sterile saline) (N=4). Blood pressure was determined at 15 minutes, 45 minutes, 4 hours, 8 hours, 24 hours, 30 and 48 hours following single IP injection. One week later, the same two groups of ZDF rats received either 0.75 mg/kg IP pegylated decoy peptide 2, 2 mg/kg scrambled decoy peptide 2, or sterile saline; and blood pressure was determined at similar timepoints. Two weeks later, two groups of 12-week-old ZDF rats (n=6/group) including those that had previously received acute peglyated decoy peptide 2 or scrambled decoy peptide 2 were treated on an alternative daily schedule with IP, free decoy peptide 2 (2 mg/kg) vs IP scrambled decoy peptide 2 (2 mg/kg) continuously for 13 weeks until sacrifice at 25 weeks of age. Body weight was determined immediately before sacrifice and after perfusion; and hearts were excised and weighed for determination of the heart-to-(perfused) body weight ratio.
(§1) Blood pressure monitoring. Tail cuff blood pressure measurement was performed using an automated CODA noninvasive blood pressure system (Kent Scientific, Torrington, CT). Rats were placed on an insulated warming platform in a well-heated room to ensure proper body temperature. Cuff monitors were provided in different sizes to accommodate rats of different ages and having different body weights. After the animal was positioned in the clear plastic restraint holder, the appropriate-sized cuff was slid over the rat's tail.
Statistical Analysis. Comparisons were made using Student's unpaired t-test (Tables 3-6, 9 and FIG. 18) or time series analysis (Tables 7, 8, FIG. 16).
as §1, with “CT.).” for “CT).”
Experiment 1: Four 12-week-old male ZDF rats were randomly assigned to receive either a single IP injection of a scrambled sequence (SEQ ID NO: 7) of Peptide ID #2 (SEQ ID NO: 2) at 1 mg/kg concentration or a 1 mg/kg concentration of myristolated Peptide ID #2 (SEQ ID NO: 9). Blood pressure was determined using tail cuff plethysmography (Kent Scientific) at 1, 4, 6, 48 and 72 hours post-injection.
Experiment 2: Six 12-week-old male ZDF rats were assigned to each of three treatment groups (N=2/group). […]

[3] = test system: male Zucker diabetic fatty rats; assay: as above; assay type: in vivo, rat; settings: two 13-week-old male ZDF rats, myristolated 2.5 mg/kg single IP
[4] = Solubility in water on reconstitution; assay type: physicochemical; settings: compared with unconjugated peptide; reconstituted in DMSO first
Protocol: Synthetic peptides. The peptides were synthesized at Lifetein Inc. (Hillborough, NJ). The lyophilized peptides were aliquoted and stored (in the presence of desiccant) at −40° C. prior to use. On the day of intraperitoneal (IP) administration, an aliquot of lyophilized unconjugated peptide was reconstituted in sterile saline at the appropriate concentration of 2 mg/kg. Reconstituted peptide was prepared fresh before each injection. […] The final concentration of DMSO in sterile saline was 10%. The vehicle, DMSO in sterile saline, was tested independently and had no effect on blood pressure when administered as an IP injection.

[5] = 11-week-old male ZDF rats (N=4/group), single IP Myr-peptide 2 2 mg/kg vs scrambled 1 mg/kg (reference = 0), over 6 days
[6] = Experiment 1: myristolated 1 mg/kg single IP
[7] = four 11-12-week-old male ZDF rats, single 2 mg/kg IP
[8] = male ZDF rats before single 2 mg/kg IP, unconjugated: two 25-week-old, myristolated: four 11-12-week-old
[9] = male ZDF rats, single 2 mg/kg IP, unconjugated: two 25-week-old, myristolated: four 11-12-week-old
[10] = single 2 mg/kg IP vs 1 mg/kg scrambled
[11] = myristolated 1 mg/kg single IP, listed as Myristolated Peptide 2
[12] = myristolated 1.5 mg/kg single IP
[13] = myristolated 1.5 mg/kg single IP, listed as Myristolated Peptide 2
[14] = myristolated 2.0 mg/kg single IP
[15] = myristolated 2.0 mg/kg single IP, listed as Myristolated Peptide 2
[16] = myristolated 2.5 mg/kg single IP
[17] = myristolated 2.5 mg/kg single IP, listed as Myr Peptide 2
[18] = myristolated 2.5 mg/kg single IP, listed as Myristolated Peptide 2

## Myr-SCLLADDN (Myristoyl-SCLLADDN) [myristolated Peptide ID 2]
[1]; Experiment 1: male ZDF rats, myristolated 1 mg/kg IP
  adverse physical or behavioral effects: No discernable adverse physical or behavioral effects
[1]; ten ZDF rats (Expt 1 and 2), up to 14-21 days after single IP
  untoward physical or behavioral effect: None of the ten rats tested (N=4 in Expt 1; N=6 in Expt 2) experienced any untoward physical or behavioral effect
[2]; [5]
  Estimate: diastolic blood pressure lowering effect vs scrambled peptide (time series): −12.0471
  Estimate: systolic blood pressure lowering effect vs scrambled peptide (time series): −17.4393
[2]; Experiment 1: male ZDF rats (N=2/group), 1 mg/kg single IP
  effect on diastolic blood pressure, in words: rapid-onset diastolic blood pressure lowering
[2]; [6]
  effect on systolic blood pressure, in words: significantly lower at 1, 4, 6 hours and 48 hours post-baseline, but not at 72 hours
  time span of significantly reduced mean arterial blood pressure: 1 to 72 h
[2]; Experiment 2: myristolated 1 mg/kg IP, one value per rat
  persistence of systolic blood pressure-lowering: 48 to 72 h and 96 to 168 h
[2]; Experiment 2: myristolated 1 mg/kg IP, rat 1 / rat 2
  persistence of declines in diastolic and mean arterial blood pressure: 2 to 3 days and 4 to 7 days
[2]; Experiment 2: myristolated 1.5 mg/kg IP
  persistence of systolic blood pressure-lowering: up to 168 hours
[2]; Experiment 2: myristolated 1.5 mg/kg IP, both rats
  persistence of blood pressure-lowering: up to 7 days
[2]; myristolated 1 mg/kg IP
  systolic blood pressure-lowering at 4 hours post-administration vs baseline: 8-11%
[2]; myristolated 1.5 mg/kg IP
  systolic blood pressure-lowering at 4 hours post-administration vs baseline: 13%
[2]; [7]
  mean diastolic BP, 72 hours: 80
  mean diastolic BP, 6 days: 85
  mean diastolic BP, 7 days: 94
  mean systolic BP, 72 hours: 126
  mean systolic BP, 6 days: 127
  mean systolic BP, 7 days: 142
[2]; [8]
  mean diastolic BP, Baseline: 97
  mean systolic BP, Baseline: 146
[2]; [9]
  mean diastolic BP, 24 hours: 76
  mean diastolic BP, 48 hours: 82
  mean systolic BP, 24 hours: 117
  mean systolic BP, 48 hours: 123
[2]; male ZDF rats, single IP 2 mg/kg, myristic acid conjugated
  duration of blood pressure lowering: ≥ 6 days
[2]; [10]
  mean lowering in diastolic blood pressure compared to scrambled Peptide 2: 12 mm Hg
  mean lowering in systolic blood pressure compared to scrambled Peptide 2: 17.4 mm Hg
[2]; single IP doses ranging from 1.0-2.5 mg/kg
  blood pressure-lowering effects, in words: potent, dose-dependent, and in many cases unexpectedly quite long-lasting
[2]; two 13-week-old male ZDF rats, myristolated 2.5 mg/kg single IP
  time until systolic and diastolic blood pressure returned to baseline: 9 days
[2]; myristolated 1 mg/kg single IP
  Acute Peak diastolic blood pressure-lowering: 10-12%
  Acute Peak mean arterial blood pressure-lowering: 6-8%
  Acute Peak systolic blood pressure-lowering: 4-10%^
  Duration of Action, diastolic BP: 4 to 6 days
  Duration of Action, mean arterial BP: 4 to 6 days
[2]; [11]
  Acute Peak diastolic blood pressure-lowering: 10-12%
  Acute Peak mean arterial blood pressure-lowering: 6-8%
  Duration of Action, systolic BP: 4 to 7 days and 7 days
[2]; [12]
  Acute Peak diastolic blood pressure-lowering: 11-19%
  Acute Peak mean arterial blood pressure-lowering: 14%
  Acute Peak systolic blood pressure-lowering: 10%
  Duration of Action, diastolic BP: 7 days
  Duration of Action, mean arterial BP: 7 days
  Duration of Action, systolic BP: 7 days
[2]; [13]
  Acute Peak diastolic blood pressure-lowering: 19%
  Acute Peak mean arterial blood pressure-lowering: 14%
[2]; [14]
  Acute Peak diastolic blood pressure-lowering: 22-25%
  Acute Peak systolic blood pressure-lowering: 7-15%
[2]; myristolated 2.0 mg/kg single IP, listed as Myr Peptide 2
  Acute Peak mean arterial blood pressure-lowering: 14-22%
[2]; [15]
  Acute Peak diastolic blood pressure-lowering: 20-25%.
  Acute Peak mean arterial blood pressure-lowering: 14-22%
  Acute Peak systolic blood pressure-lowering: 15%
[2]; [16]
  Acute Peak systolic blood pressure-lowering: 20-23%
  Duration of Action, diastolic BP: 9 days
  Duration of Action, mean arterial BP: 9 days
  Duration of Action, systolic BP: 9 days
[2]; [17]
  Acute Peak diastolic blood pressure-lowering: 18-35%
  Acute Peak mean arterial blood pressure-lowering: 28-30%
[2]; [18]
  Acute Peak diastolic blood pressure-lowering: 18-36%
  Acute Peak mean arterial blood pressure-lowering: 19-30%
  Acute Peak systolic blood pressure-lowering: 23%
[3]; listed as myristolated decoy Peptide 2
  duration of persistent blood pressure lowering: 9 days
[3]; listed as myristolated decoy peptide 2
  duration of persistent blood pressure lowering: 8 days
[4]
  solubility in water, in words: lower solubility in water

Source: US20240002467A1, “COMPOSITIONS AND METHODS OF INHIBITING THE BINDING OF PLASMA IGG AUTOANTIBODIES TO SEROTONIN 2A RECEPTOR” (UNITED STATES GOVERNMENT AS REPRESENTED BY THE DEPARTMENT …, priority 2020, published 2024)
